Patent US20230248762A1, “Method and composition for supporting normal blood calcium concentrations in mammals” (Contract Manufacturing Services, LLC, priority 2022, published 2023)

Legend:
blood calcium = settings: oral 50 g calcium; cited from earlier work
[1] = system: plasma calcium concentration; assay: Plasma calcium after calving, herds without anionic diet (Example 5); format: in vivo, multiparous cows
Source text: For examples 2 thru 5, statistical analysis consisted of repeated measures analysis of variance with cow nested within treatment and time after bolus administration as the repeated measure. Treatment plasma calcium means were compared at each time point using Tukey's test of comparison of means and differences are declared to be significant when the probability of the null hypothesis being correct is P<0.075.
In Example 5, multiparous cows were utilized from several small farms that were not utilizing an anionic diet to reduce the incidence of hypocalcemia in the cows. Within a few hours of calving, cows were administered one of four treatments. Six cows were not treated with any bolus after calving (No Bolus). Four cows were treated with intravenous calcium (10.5 g calcium in the form of calcium gluconate) after calving (IV Ca). Twenty-two cows received 2 boluses after calving that contained calcium salts and Solanum glaucophyllum leaf, supplying 78 g calcium and 1,25-dihydroxyvitamin D3 glycoside equivalent to 196 ug 1,25-dihydroxyvitamin D3 (Ca+SG Bolus). Twenty-four cows were treated at calving and again 12-24 hrs. later with commercial oral calcium salt boluses that supplied 40-44 g calcium each for a total calcium dose of 80-88 g, primarily from calcium chloride (Ca Bolus).

Compound | calcium absorbed into the blood (blood calcium) | duration of increase of blood calcium (blood calcium) [h] | increase of blood calcium (blood calcium) | time to increase of blood calcium (blood calcium) [h] | effect on calcium homeostasis mechanisms of the cow ([1]; 10.5 g calcium intravenous) | plasma calcium concentration, rank among treatments ([1]; 24 to 84 hours after calving) | hypocalcemia versus no treatment ([1]; days 2 and 3 following lactation) | plasma calcium concentration, rank among treatments ([1]; four hours after calving)
[Ca+2].[Cl-].[Cl-] [calcium chloride] | about 4 g | 6 to 8 | approximately 1 mg/dl | ≤ 1 |  |  |  | 
calcium gluconate [Ca IV] |  |  |  |  | inhibited the calcium homeostasis mechanisms | lowest plasma calcium concentration | more hypocalcemia | highest plasma calcium concentration
